According to patent US8092816B2, “Insecticidal compositions for control of general household pests” (priority 2004, dated 2012):

Columns and labels:
German cockroach [1] = test: Example 2: German cockroach knockdown and mortality, bifenthrin and imidacloprid; assay type: in vivo
Description: (§1) The following examples further illustrate the present invention, but, of course, should not be construed as in any way limiting its scope. The examples set forth certain biological data illustrating the efficacy of the compositions of the present invention in controlling general household pests. Each example embodies a separate test wherein the pests were randomly selected from a population at a random age. As a result, from example to example, the ages of the pests can be very different. This age difference potentially translates to different baselines for each example. Therefore, data should only be compared within the example and not from example to example due to the differences in age of the pests from example to example. Unless otherwise indicated, all parts, percentages, and the like are by weight. The spray chamber used in the examples was approximately 76 inches tall, 73 inches long and 31 inches deep with an adjustable shelf (approximately 22 inches deep) and a movable spray nozzle. The spray chambers were calibrated to deliver a volume of approximately 1 gallon of liquid per 1000 square feet of area at about 14 pounds per square inch of pressure. A DeVilbiss hand held sprayer (Atomizer model 152) manufactured by DeVilbiss located in Glendale Heights, Ill. was used in testing house flies and mosquitoes. The DeVilbiss was used to apply approximately 3-5 milliliters of product at about 10 pounds per square inch.
(§2) The compositions of the present invention were tested for German cockroach activity in the following manner:
(§3) Test compositions made up of TALSTARONE® MULTI-INSECTICIDE and a wettable powder of imidacloprid (MERIT) in distilled water were prepared that provided appropriate rates of application of combinations of bifenthrin and imidacloprid, as well as bifenthrin and imidacloprid alone.
(§4) The spray chamber was then calibrated to deliver the treatment solution at the desired volume and pressure over the desired area on the chamber shelf. Spray chamber shelf height was adjusted to approximately 18 inches from the spray tip. The shelf was then covered with aluminum foil and the center of the shelf from front-to-back and end-to-end was determined. A desired number of 4.0″ sieve circles were marked on the aluminum foil with a permanent marker. The inside of a desired number of PVC rings were coated with a petroleum jelly/mineral oil mixture (1:2 ratio). The PVC rings were place on the sieve circles. 10 male German cockroaches were placed inside each PVC ring. The sprayer was activated and the test compound was applied to each PVC ring interior. German cockroach knockdown and mortality were measured.

Red Imported Fire Ant = test: Example 5: red imported fire ant knockdown and mortality, bifenthrin and imidacloprid; assay type: in vivo, Solenopsis invicta
Description: as §1
The compositions of the present invention were tested for red imported fire ant activity in the following manner:
as §3
The spray chamber was then calibrated to deliver the treatment solution at the desired volume and pressure over the desired area on the chamber shelf. Spray chamber shelf height was adjusted to approximately 18 inches from the spray tip. The shelf was then covered with aluminum foil and the center of the shelf from front-to-back and end-to-end was determined. The red imported fire ants to be treated were collected and placed in screened 16 oz paper cups. The paper cups were placed onto the aluminum foil on the spray chamber shelf. The sprayer was activated and the test compound was applied to each paper cup interior. Red imported fire ant knockdown and mortality were measured.

German cockroach [2] = test: Example 13: German cockroach mortality, bifenthrin and clothianidin; assay type: in vivo
Description: as §1, §2
Test compositions made up of TALSTARONE® MULTI-INSECTICIDE and a 16% a.i. water dispersible granular of clothianidin in distilled water were prepared that provided appropriate rates of application of combinations of bifenthrin and clothianidin, as well as bifenthrin and clothianidin alone.
as §4, with “cockroach” for “cockroach knockdown and”, “mortality was” for “mortality were”

American cockroach = test: Example 9: American cockroach knockdown and mortality, bifenthrin and thiamethoxam; assay type: in vivo
Description: as §1
The compositions of the present invention were tested for American cockroach activity in the following manner:
Test compositions made up of TALSTARONE® MULTI-INSECTICIDE and a water dispersible granular of thiamethoxam (CENTRIC) in distilled water were prepared that provided appropriate rates of application of combinations of bifenthrin and thiamethoxam, as well as bifenthrin and thiamethoxam alone.
as §4, with “American” for “German”

[3] = rate of appln. 10 PPM (0.001% by weight)
[4] = rate of appln. 50 PPM (0.005% by weight)

SMILES: Cc1c(COC(=O)[C@@H]2[C@H](/C=C(\Cl)C(F)(F)F)C2(C)C)cccc1-c1ccccc1 (racemic) [A, 2-methylbiphenyl-3-ylmethyl (Z)-(1RS)-cis-3-(2-chloro-3,3,3-trifluoroprop-1-enyl)-2,2-dimethylcyclopropanecarboxylate]
- Knockdown Rate @ 10 minute (German cockroach [1]; 200 PPM, 0.02% by weight): 0%
- Knockdown Rate @ 15 minute (German cockroach [1]; 200 PPM, 0.02% by weight): 3%
- Knockdown Rate @ 30 minutes (German cockroach [1]; 200 PPM, 0.02% by weight): 45%
- Mortality Rate @ 60 minutes (German cockroach [1]; 200 PPM, 0.02% by weight): 100%
- Mortality Rate @ 120 minutes (German cockroach [1]; 200 PPM, 0.02% by weight): 100%
- Mortality Rate @ 1 day (German cockroach [1]; 200 PPM, 0.02% by weight): 100%
- Knockdown Rate @ 10 minute (German cockroach [1]; 600 PPM, 0.06% by weight): 0%
- Knockdown Rate @ 15 minute (German cockroach [1]; 600 PPM, 0.06% by weight): 8%
- Knockdown Rate @ 30 minutes (German cockroach [1]; 600 PPM, 0.06% by weight): 60%
- Mortality Rate @ 60 minutes (German cockroach [1]; 600 PPM, 0.06% by weight): 100%
- Mortality Rate @ 120 minutes (German cockroach [1]; 600 PPM, 0.06% by weight): 100%
- Mortality Rate @ 1 day (German cockroach [1]; 600 PPM, 0.06% by weight): 100%
- Knockdown Rate @ 5 minute (Red Imported Fire Ant; 10 PPM, 0.001% by weight): 30%
- Knockdown Rate @ 10 minute (Red Imported Fire Ant; 10 PPM, 0.001% by weight): 93%
- Knockdown Rate @ 15 minute (Red Imported Fire Ant; 10 PPM, 0.001% by weight): 95%
- Knockdown Rate @ 30 minutes (Red Imported Fire Ant; 10 PPM, 0.001% by weight): 100%
- Mortality Rate @ 60 minutes (Red Imported Fire Ant; 10 PPM, 0.001% by weight): 65%
- Mortality Rate @ 120 minutes (Red Imported Fire Ant; 10 PPM, 0.001% by weight): 100%
- Mortality Rate @ 4 hours (Red Imported Fire Ant; 10 PPM, 0.001% by weight): 100%
- Mortality Rate @ 1 day (Red Imported Fire Ant; 10 PPM, 0.001% by weight): 100%
- Knockdown Rate @ 5 minute (Red Imported Fire Ant; 50 PPM, 0.005% by weight): 10%
- Knockdown Rate @ 10 minute (Red Imported Fire Ant; 50 PPM, 0.005% by weight): 70%
- Knockdown Rate @ 15 minute (Red Imported Fire Ant; 50 PPM, 0.005% by weight): 95%
- Knockdown Rate @ 30 minutes (Red Imported Fire Ant; 50 PPM, 0.005% by weight): 100%
- Mortality Rate @ 60 minutes (Red Imported Fire Ant; 50 PPM, 0.005% by weight): 100%
- Mortality Rate @ 120 minutes (Red Imported Fire Ant; 50 PPM, 0.005% by weight): 100%
- Mortality Rate @ 4 hours (Red Imported Fire Ant; 50 PPM, 0.005% by weight): 100%
- Mortality Rate @ 1 day (Red Imported Fire Ant; 50 PPM, 0.005% by weight): 100%
- Mortality Rate @ 60 minutes (German cockroach [2]; [3]): 8%
- Mortality Rate @ 120 minutes (German cockroach [2]; [3]): 33%
- Mortality Rate @ 1 day (German cockroach [2]; [3]): 35%
- Mortality Rate @ 2 days (German cockroach [2]; [3]): 60%
- Mortality Rate @ 4 days (German cockroach [2]; [3]): 100%
- Mortality Rate @ 60 minutes (German cockroach [2]; [4]): 15%
- Mortality Rate @ 120 minutes (German cockroach [2]; [4]): 48%
- Mortality Rate @ 1 day (German cockroach [2]; [4]): 58%
- Mortality Rate @ 2 days (German cockroach [2]; [4]): 100%
- Mortality Rate @ 4 days (German cockroach [2]; [4]): 100%
- Knockdown Rate @ 15 minute (American cockroach; 10 PPM, 0.001% by weight): 0%
- Knockdown Rate @ 30 minute (American cockroach; 10 PPM, 0.001% by weight): 0%
- Mortality Rate @ 60 minutes (American cockroach; 10 PPM, 0.001% by weight): 0%
- Mortality Rate @ 120 minutes (American cockroach; 10 PPM, 0.001% by weight): 0%
- Mortality Rate @ 4 hours (American cockroach; 10 PPM, 0.001% by weight): 0%
- Mortality Rate @ 1 day (American cockroach; 10 PPM, 0.001% by weight): 5%
- Knockdown Rate @ 15 minute (American cockroach; 50 PPM, 0.005% by weight): 0%
- Knockdown Rate @ 30 minute (American cockroach; 50 PPM, 0.005% by weight): 0%
- Mortality Rate @ 60 minutes (American cockroach; 50 PPM, 0.005% by weight): 0%
- Mortality Rate @ 120 minutes (American cockroach; 50 PPM, 0.005% by weight): 0%
- Mortality Rate @ 4 hours (American cockroach; 50 PPM, 0.005% by weight): 0%
- Mortality Rate @ 1 day (American cockroach; 50 PPM, 0.005% by weight): 30%
